Source: publication PMC7508583, “Discovery and Preclinical Development of Antigiardiasis Fumagillol Derivatives” (Antimicrobial Agents and Chemotherapy, 2020)
In brackets after ≈: the same amount, converted by molar mass. Like-named read-outs stand apart in the source and are kept apart here.

Key:
CHO-K1 (CHO) cells = assay: CHO cell cytotoxicity, ATP content assay; format: cell-based; details: for IC50: Cricetulus griseus, CHO, 48 h, read-out: IC50 CHO
Experimental: Cytotoxicity in CHO-K1 (CHO) cells was also determined using the homogeneous ATP content assay with an ATPlite kit, to enable comparison with the IC50 values in the G. lamblia and E. histolytica trophozoites and provide an initial estimate of toxicity risk. Fumagillin served as a comparative control, untreated cells (including 0.5% DMSO) served as a negative control, and puromycin served as a positive control.
CHO cells (180 μl) were seeded at a density of 5,000 cells/well and incubated for 24 h at 37°C in a 5% CO2 incubator in a 96-well plate. The cells were treated with 20 μl fumagillin or fumagillol derivative solutions diluted to obtain final concentrations of 100, 30, 10, 3, 1, and 0.3 μM. Puromycin was diluted from 10 through 0.03 μM. The plates were incubated for 48 h at 37°C in a 5% CO2 incubator. One hundred microliters per well of ATPlite luminescence reagent was added to the plates, the plates were incubated at room temperature for 30 min, and the luminescence signal was measured. The assay was performed in duplicate.

[1] = test system: G. lamblia WB trophozoites; assay: Trophozoite viability MLC determination; format: cell-based, Giardia lamblia; details: 3 days treatment, 3 days proliferation without drug
Experimental: (§1) The inhibition of metabolism enables the organism to resume proliferation once treatment is completed. To discriminate between the lethality of the promising compounds and the induction of metabolic inactivity by the promising compounds, the minimum lethal concentration (MLC) values were determined by treating the trophozoites with the test compounds for 3 days and transferring the resulting cultures to medium lacking the compounds for 3 days of proliferation. This assay was described previously for G. lamblia ([18]) and was adapted to E. histolytica in the current study.
(§2) Trophozoites of G. lamblia isolates WB and GS were grown anaerobically in borosilicate glass screw-cap culture tubes (Fisher Scientific) at pH 7.0 in Keister’s modified TYI-S-33 medium (ATCC). The medium was supplemented with 10% heat-inactivated bovine serum (Sigma-Aldrich) and 0.05% bovine bile (Sigma-Aldrich). To attain low-oxygen-tension conditions, the tubes were filled to 85% to 90% of their total volume capacity and incubated without shaking at 37°C. Subcultures (2 × 10^5 trophozoites per tube) were made three times a week. Detachment of trophozoites for inoculation was achieved by chilling the cultures on ice for 20 min. Culturing and detachment of metronidazole-resistant G. lamblia assemblage A 713M3 and assemblage B 1279-M1 trophozoites followed the same protocol, except that the growth medium was supplemented with metronidazole, with the concentration gradually being increased to 10 μM.
(§3) Compounds were prepared by 2-fold serial dilutions in growth medium containing 0.5% DMSO (diluted from a starting concentration of 1 μM to 12 concentrations for all compounds except metronidazole, fumagillol, and TNP-470, which were diluted from 100 μM), and 100 μl/well was transferred in duplicate to the 96-well culture plate. Ten microliters of G. lamblia trophozoites was plated at a density of 10,000 cells/well. The plates were incubated under anaerobic condition in a BD GasPak EZ container system (BD Diagnostics) at 37°C for 72 h and surveyed visually under a microscope to check trophozoite survival, mobility, and attachment. […] The tubes were incubated under anaerobic condition for 3 days at 37°C and checked under a microscope. The MLC value was the concentration in the tube with the lowest compound concentration without any live organism.

[2] = test system: metronidazole-resistant G. lamblia 1279-M1; assay: Trophozoite viability MLC determination; format: cell-based, Giardia lamblia; details: metronidazole-resistant strain; 3 days treatment, 3 days proliferation
Experimental: as §1, §2, §3

[3] = test system: metronidazole-resistant G. lamblia 713M3; assay: Trophozoite viability MLC determination; format: cell-based, Giardia lamblia; details: metronidazole-resistant strain; 3 days treatment, 3 days proliferation
Experimental: as §1, §2, §3

[4] = test system: E. histolytica HM1:IMSS trophozoites; assay: Trophozoite viability MLC determination (ameba assay); format: cell-based, Entamoeba histolytica; details: 3 days treatment, 3 days proliferation without drug
Experimental: The inhibition of metabolism enables the organism to resume proliferation once treatment is completed. To discriminate between the lethality of the promising compounds and the induction of metabolic inactivity by the promising compounds, the minimum lethal concentration (MLC) values were determined by treating the trophozoites with the test compounds for 3 days and transferring the resulting cultures to medium lacking the compounds for 3 days of proliferation. This assay was described previously for G. lamblia ([18]) and was adapted to E. histolytica in the current study. In addition to measuring MLC values in the G. lamblia WB and GS strains and in E. histolytica, the MLCs were also measured in metronidazole-resistant G. lamblia strains 713M3 and 1279-M1, to confirm that these compounds were also effective when the metronidazole resistance mechanism evolved. […] Thus, even though fumagillin is a potent anti-G. lamblia drug, it might act in part by metabolic inhibition. Fumagillin’s IC50 and MLC values in E. histolytica were within the same range, supporting the true killing mechanism.
E. histolytica strain HM1:IMSS trophozoites were grown at 37°C in TYI-S-33 medium supplemented with penicillin (100 U/ml) and streptomycin sulfate (100 μg/ml) ([65]). Trophozoites were grown anaerobically in borosilicate tubes or T25 flasks, and subcultures were made 1 to 2 times a week. Trophozoites were detached for inoculation by chilling the cultures on ice for 20 min.
For the MLC assay, compounds were prepared as described above by 2-fold serial dilutions in fresh growth medium, and 50 μl was transferred into the wells of a 96-well plate in duplicate. Confluent E. histolytica trophozoites were diluted in growth medium to a density of 200 cells/μl. Fifty-microliter cultures were distributed in each well to bring the total assay volume to 100 μl. The plates were kept under an anaerobic environment for 72 h at 37°C. Each well was surveyed under a microscope to visualize trophozoite survival, mobility, and attachment. In all cases, duplicate measurements yielded identical growth/death transitions. The plates were chilled on ice for 30 min, and the entire content of each of 4 wells within the growth/death transition of one of the duplicate experiments was transferred for proliferation into 8-ml tubes containing growth medium and no drug. The tubes were incubated under anaerobic condition for 3 days at 37°C and checked under a microscope. The MLC value was the concentration in the tube with the lowest compound concentration without any live organism.

Row | Compound | IC50 (CHO-K1 (CHO) cells) [µM] | MLC G. lamblia WB [1] | MLC G. lamblia 1279-M1 [2] | MLC G. lamblia 713M3 [3] | MLC E. histolytica HM:IMSS [4] | IC50 (CHO-K1 (CHO) cells; cytotoxicity, ATP content) [µM] | selectivity, IC50 for CHO cells/IC50 for amebae (CHO-K1 (CHO) cells; vs E. histolytica) | selectivity, IC50 for CHO cells/IC50 for giardia (CHO-K1 (CHO) cells; vs G. lamblia trophozoites)
1 | CO[C@@H]1[C@H](OC(=O)/C=C/C=C/C=C/C=C/C(=O)O)CC[C@]2(CO2)[C@H]1[C@@]1(C)O[C@@H]1CC=C(C)C [Fumagillin, reference compound] | > 100 | 125 nM (≈ 57.3 ng/mL) | 125 nM (≈ 57.3 ng/mL) | 250 nM (≈ 115 ng/mL) | 78 nM (≈ 35.8 ng/mL) |  |  | 
2 | COC1C(OC(=O)NC(=O)CN2CCOCC2)CCC2(CO2)C1C1(C)OC1CC=C(C)C (stereo not shown) [Compound 3] |  | 0.98 nM (≈ 0.443 ng/mL) | 0.98 nM (≈ 0.443 ng/mL) | 3.9 nM (≈ 1.76 ng/mL) | 3.9 nM (≈ 1.76 ng/mL) | > 100 |  | 
3 | CCOC(=O)Cc1ccc(NC(=O)OC2CCC3(CO3)C(C3(C)OC3CC=C(C)C)C2OC)cc1 (stereo not shown) [Compound 11] |  | 98 nM (≈ 47.8 ng/mL) |  |  | 125 nM (≈ 60.9 ng/mL) | > 100 |  | 
4 | COC1C(OC(=O)N2CCC(O)CC2)CCC2(CO2)C1C1(C)OC1CC=C(C)C (stereo not shown) [Compound 16] |  | 1.95 nM (≈ 0.799 ng/mL) | 7.8 nM (≈ 3.19 ng/mL) | 1.95 nM (≈ 0.799 ng/mL) | 3.9 nM (≈ 1.6 ng/mL) | > 100 |  | 
5 | CO[C@@H]1[C@H](OC(=O)Nc2ccc(C(=O)O)cc2)CC[C@]2(CO2)[C@H]1[C@@]1(C)O[C@@H]1CC=C(C)C [Compound 9, 4-(((((3R,4S,5S,6R)-5-methoxy-4-((2R,3R)-2-methyl-3-(3-methylbut-2-en-1-yl)oxiran-2-yl)-1-oxaspiro[2.5]octan-6-yl)oxy)carbonyl)amino)benzoic acid] | > 100 | 3.9 nM (≈ 1.74 ng/mL) | 7.8 nM (≈ 3.47 ng/mL) | 7.8 nM (≈ 3.47 ng/mL) | 31.3 nM (≈ 13.9 ng/mL) |  |  | 
6 | Cc1ncc([N+](=O)[O-])n1CCO [Metronidazole, reference compound] |  | 7,700 nM | 100,000 nM | 100,000 nM | 1,500 nM |  | > 10 | < 10
7 | COC1C(OC(=O)NC(=O)CN2CCC(O)CC2)CCC2(CO2)C1C1(C)OC1CC=C(C)C (stereo not shown) [Compound 4] |  | 3.9 nM (≈ 1.82 ng/mL) | 7.8 nM (≈ 3.64 ng/mL) | 3.9 nM (≈ 1.82 ng/mL) | 7.8 nM (≈ 3.64 ng/mL) | > 100 |  | 
